Results taken from patent US10308660B2, “Compounds and compositions for inhibiting the activity of SHP2” (Novartis AG, priority 2015, dated 2019).
pIC50: −log10 of the molar value.

Target: SHP2 (Homo sapiens (Human), UniProt Q06124)
Assay: SHP2 allosteric inhibition assay (DiFMUP prompt fluorescence)
Type: biochemical
Settings: 0.5 nM SHP2 activated with 0.5 μM peptide IRS1_pY1172(dPEG8)pY1222; substrate DiFMUP; 25° C.

Sequence of SHP2 (Q06124 whole entry): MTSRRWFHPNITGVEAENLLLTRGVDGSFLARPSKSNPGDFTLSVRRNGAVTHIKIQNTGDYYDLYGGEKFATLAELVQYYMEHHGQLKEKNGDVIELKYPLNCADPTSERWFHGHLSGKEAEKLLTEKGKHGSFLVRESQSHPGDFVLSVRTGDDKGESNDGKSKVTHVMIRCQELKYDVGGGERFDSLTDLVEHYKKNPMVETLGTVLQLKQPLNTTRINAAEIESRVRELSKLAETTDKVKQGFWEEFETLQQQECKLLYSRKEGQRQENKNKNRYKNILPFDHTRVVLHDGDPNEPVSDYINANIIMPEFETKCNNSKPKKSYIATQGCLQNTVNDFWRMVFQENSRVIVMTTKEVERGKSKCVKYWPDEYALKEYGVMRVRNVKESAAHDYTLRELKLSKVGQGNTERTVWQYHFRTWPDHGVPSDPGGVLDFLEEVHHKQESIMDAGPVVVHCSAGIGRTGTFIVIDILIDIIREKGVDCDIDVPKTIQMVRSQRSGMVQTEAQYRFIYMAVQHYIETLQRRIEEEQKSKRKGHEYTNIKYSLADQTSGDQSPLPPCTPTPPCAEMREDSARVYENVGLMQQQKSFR

Row | SMILES | pIC50
1 | C[C@@H]1CC2(CCN(c3nc(N)c(-c4ccccc4)c(=O)n3C)CC2)[C@H](N)C1(F)F [Example 165] | 7.11
2 | C[C@@H]1OCC2(CCN(c3nc(N)c(-c4ccc(N(C)C)cc4)c(=O)n3C)CC2)[C@@H]1N [Example 166] | 7.06
3 | C[C@@H]1CC2(CCN(c3nc(N)c(-c4cccc(Cl)c4Cl)c(=O)n3C)CC2)[C@H](N)C1(F)F [Example 167] | 7.05
4 | C[C@@H]1OCC2(CCN(c3nc(N)c(-c4ccc(-c5ccccc5)cc4)c(=O)n3C)CC2)[C@@H]1N [Example 168] | 6.97
5 | C[C@@H]1OCC2(CCN(c3nc(N)c(-c4ccc(OC(F)(F)F)cc4)c(=O)n3C)CC2)[C@@H]1N [Example 169] | 6.92
6 | COCCOc1ccc(-c2c(N)nc(N3CCC4(CC3)CO[C@@H](C)[C@H]4N)n(C)c2=O)cc1 [Example 170] | 6.77
7 | C[C@@H]1OCC2(CCN(c3nc(N)c(-c4cncc(Cl)c4)c(=O)n3C)CC2)[C@@H]1N [Example 171] | 6.76
8 | C[C@H]1C[C@@H](N)C2(CCN(c3nc(N)c(-c4ccc(Cl)cc4)c(=O)n3C)CC2)C1 [Example 172] | 6.76
9 | COc1ccc(-c2c(N)nc(N3CCC4(CC3)CO[C@@H](C)[C@H]4N)n(C)c2=O)cc1C [Example 173] | 6.76
10 | C[C@@H]1OCC2(CCN(c3nc(N)c(-c4ccc(C(C)(C)C)cc4)c(=O)n3C)CC2)[C@@H]1N [Example 174] | 6.74
11 | C[C@@H]1OCC2(CCN(c3nc(N)c(-c4ccc(C#N)cc4)c(=O)n3C)CC2)[C@@H]1N [Example 175] | 6.59
12 | Cc1ccccc1-c1c(N)nc(N2CCC3(CC2)CO[C@@H](C)[C@H]3N)n(C)c1=O [Example 176] | 6.57
13 | C[C@@H]1OCC2(CCN(c3nc(N)c(-c4ccc(Cl)c(Cl)c4)c(=O)n3C)CC2)[C@@H]1N [Example 177] | 6.51
14 | C[C@@H]1OCC2(CCN(c3nc(N)c(-c4ccc(C5CCOCC5)cc4)c(=O)n3C)CC2)[C@@H]1N [Example 178] | 6.39
15 | C[C@@H]1OCC2(CCN(c3nc(N)c(-c4cc(Cl)cc(Cl)c4)c(=O)n3C)CC2)[C@@H]1N [Example 179] | 6.38
16 | C[C@@H]1OCC2(CCN(c3nc(N)c(-c4cc(Cl)cc(Cl)c4Cl)c(=O)n3C)CC2)[C@@H]1N [Example 180] | 6.29
17 | COc1ccccc1-c1c(N)nc(N2CCC3(CC2)CO[C@@H](C)[C@H]3N)n(C)c1=O [Example 181] | 6.08

Row | SMILES | pIC50
18 | C[C@@H]1OCC2(CCN(c3nc(N)c(-c4ccccn4)c(=O)n3C)CC2)[C@@H]1N [Example 182] | 5.97
19 | Cc1ncccc1-c1c(N)nc(N2CCC3(CC2)CO[C@@H](C)[C@H]3N)n(C)c1=O [Example 183] | 5.80
20 | C[C@@H]1OCC2(CCN(c3nc(N)c(-c4cccc(C(F)(F)F)c4)c(=O)n3C)CC2)[C@@H]1N [Example 184] | 5.77
21 | C[C@@H]1OCC2(CCN(c3nc(N)c(-c4ccc(N5CCOCC5)cc4)c(=O)n3C)CC2)[C@@H]1N [Example 185] | 5.67
22 | C[C@@H]1OCC2(CCN(c3nc(N)c(-c4cc(Cl)ccc4Cl)c(=O)n3C)CC2)[C@@H]1N [Example 186] | 5.65
23 | C[C@@H]1OCC2(CCN(c3nc(N)c(-c4ccnc(Cl)c4)c(=O)n3C)CC2)[C@@H]1N [Example 187] | 5.53
24 | C[C@@H]1CC2(CCN(c3nc(N)c(-c4ccccc4)c(=O)n3C)CC2)[C@H](N)[C@H]1F [Example 188] | 7.82
25 | Cn1c(N2CCC3(CC2)COC[C@H]3N)nc(N)c(-c2ccccc2)c1=O [Example 189] | 7.39
26 | Cn1c(N2CCC3(CC2)COC[C@H]3N)nc(N)c(-c2cccc(Cl)c2Cl)c1=O [Example 190] | 7.16
27 | Cn1c(N2CCC3(CCC[C@H]3N)CC2)nc(N)c(-c2ccccc2)c1=O [Example 191] | 7.57
28 | Cn1c(N2CCC3(CCC[C@H]3N)CC2)nc(N)c(-c2cccc(Cl)c2Cl)c1=O [Example 192] | 7.68
29 | Cn1c(N2CCC(C)(CN)CC2)nc(N)c(-c2cccc(Cl)c2Cl)c1=O [Example 193] | 7.40
30 | Cc1nc(N2CCC3(CC2)CO[C@@H](C)[C@H]3N)n(C)c(=O)c1-c1ccccc1 [Example 197] | 6.43
31 | CC1(CN)CCN(c2ncc(-c3cccc(Cl)c3Cl)c(=O)[nH]2)CC1 [Example 200] | < 4.00
32 | C[C@@H]1OCC2(CCN(c3ncc(-c4cccc(Cl)c4Cl)c(=O)[nH]3)CC2)[C@@H]1N [Example 201] | 5.48
33 | N[C@@H]1CCCC12CCN(c1ncc(-c3cccc(Cl)c3Cl)c(=O)[nH]1)CC2 [Example 202] | 6.11
